How the values were obtained:
[1] = test system: ER+ breast cancer with both wild-type and mutant ESR1; details: models of ER+ breast cancer, single agent and in combination with a CDK4/6 inhibitor; cited from earlier work
[2] = test system: ER+ breast cancer; details: monotherapy; models including fulvestrant-insensitive, estrogen-independent and/or ESR1-mutant; cited from earlier work
[3] = standardized uptake value in tissues not significantly expressing ER; assay type: in vivo, human; details: 200 mg or up to 500 mg q.d.; uterus, muscle, bone tissues not significantly expressing ER
[4] = test system: tumors expressing Y537S ERα; assay: growth of tumors expressing mutant ERα; assay type: in vivo
[5] = test system: breast cancer tumor; assay: animal xenograft model of breast cancer; details: in vivo
[6] = bone loss in ovariectomized rats; assay type: in vivo
[7] = half life after PO dosing; assay type: in vivo; details: humans
[8] = test system: tumors expressing wild-type ERα; assay: growth of tumors expressing wild-type ERα; assay type: in vivo
[9] = test system: uterine tissues; assay: estradiol stimulation of uterine tissues in ovariectomized rats; assay type: in vivo
[10] = molecular target: T1, ER in the uterus and pituitary (Homo sapiens, UniProt P03372); assay: estradiol binding to ER by FES-PET imaging; assay type: in vivo; details: uterine and pituitary tissue
T1 construct: from tissue; host or cells: uterus and pituitary, in vivo
T1 sequence (P03372 1-595): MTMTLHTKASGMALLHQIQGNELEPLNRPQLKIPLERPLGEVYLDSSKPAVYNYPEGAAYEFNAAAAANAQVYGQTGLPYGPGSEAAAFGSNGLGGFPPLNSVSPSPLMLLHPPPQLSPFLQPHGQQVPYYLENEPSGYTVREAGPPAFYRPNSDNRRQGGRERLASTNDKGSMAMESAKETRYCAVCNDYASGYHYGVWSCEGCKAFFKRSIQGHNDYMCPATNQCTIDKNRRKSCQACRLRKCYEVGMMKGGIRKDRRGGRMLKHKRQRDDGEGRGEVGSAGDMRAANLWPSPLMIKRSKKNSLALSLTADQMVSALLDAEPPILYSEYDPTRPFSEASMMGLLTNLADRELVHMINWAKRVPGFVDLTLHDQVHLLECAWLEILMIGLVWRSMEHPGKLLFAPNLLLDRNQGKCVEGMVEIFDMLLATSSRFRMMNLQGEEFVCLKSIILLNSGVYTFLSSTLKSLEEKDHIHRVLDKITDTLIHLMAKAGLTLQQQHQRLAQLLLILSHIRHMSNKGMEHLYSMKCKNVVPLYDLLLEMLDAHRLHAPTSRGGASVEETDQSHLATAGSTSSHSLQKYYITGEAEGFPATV
Experimental: In these experiments, estradiol binding to ER in uterine and pituitary tissue was evaluated by FES-PET imaging.

[11] = test system: brain metastasis xenograft; assay: brain metastasis xenograft model; details: in vivo
[12] = molecular target: T2, ERα (Homo sapiens, UniProt P03372); details: cited from earlier work
T2 sequence (P03372 1-595): T1 sequence (P03372 1-595)

## CCNCCc1ccc(CN(CC)c2cc(OC)ccc2[C@@H]2CCc3cc(O)ccc3C2)cc1 [RAD1901]
[1]
  inhibition of tumor growth: effective in inhibiting tumor growth
[2]
  antitumor activity: demonstrated antitumor activity
[3]
  change in standardized uptake value (SUV) pre- and post-treatment: hardly any changes
[4]
  inhibition of tumor growth: unexpected ability to inhibit the growth of tumors
[5]
  accumulation within tumor cells: significant accumulation
  breast cancer tumor growth: inhibiting breast cancer tumor growth
[6]
  bone loss: protects against bone loss
[7]
  half life: surprisingly long half life
[8]
  inhibition of tumor growth: inhibit tumor growth
[9]
  estradiol stimulation of uterine tissues: antagonized estradiol stimulation
[10]
  observed level of ER binding after treatment: at or below background levels
[11]
  blood-brain barrier penetration: capable of penetrating the blood-brain barrier
  survival: significantly prolonged survival
[12]
  binding preference ERα versus ERβ: preferentially bind ERα
